# According to US20120207742A1 (priority 2011, published 2012):
# Test system: DU-145 cells
# Assay type: cell-based, human
compound,measurement,value
C=C1[C@@H](C)[C@H]2[C@H](Cc3ccccc3)NC(=O)[C@]23[C@H](OC(C)=O)/C=C/[C@@](C)(O)C(=O)[C@@H](C)C/C=C/[C@H]3[C@@H]1O [Cytochalasin-D],effect on cell migration,did not migrate
